Test [1] deals with T1, huPPARγ (Homo sapiens, UniProt P37231).
T1 sequence (P37231 1-505): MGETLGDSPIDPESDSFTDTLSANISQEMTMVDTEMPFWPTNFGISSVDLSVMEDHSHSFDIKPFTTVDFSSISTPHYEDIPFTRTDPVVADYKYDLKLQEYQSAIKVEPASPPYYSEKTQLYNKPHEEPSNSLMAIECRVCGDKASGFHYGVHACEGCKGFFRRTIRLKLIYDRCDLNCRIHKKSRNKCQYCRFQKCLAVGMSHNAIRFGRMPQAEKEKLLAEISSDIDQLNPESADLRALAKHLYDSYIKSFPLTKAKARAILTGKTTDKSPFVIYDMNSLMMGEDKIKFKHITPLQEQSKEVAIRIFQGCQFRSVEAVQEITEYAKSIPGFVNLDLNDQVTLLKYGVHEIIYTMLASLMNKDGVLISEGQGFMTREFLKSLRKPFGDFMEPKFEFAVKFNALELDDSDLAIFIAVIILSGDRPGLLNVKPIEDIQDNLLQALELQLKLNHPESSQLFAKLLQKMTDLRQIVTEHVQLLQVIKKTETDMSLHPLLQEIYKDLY
T1 sequence (P19793 1-462 partner): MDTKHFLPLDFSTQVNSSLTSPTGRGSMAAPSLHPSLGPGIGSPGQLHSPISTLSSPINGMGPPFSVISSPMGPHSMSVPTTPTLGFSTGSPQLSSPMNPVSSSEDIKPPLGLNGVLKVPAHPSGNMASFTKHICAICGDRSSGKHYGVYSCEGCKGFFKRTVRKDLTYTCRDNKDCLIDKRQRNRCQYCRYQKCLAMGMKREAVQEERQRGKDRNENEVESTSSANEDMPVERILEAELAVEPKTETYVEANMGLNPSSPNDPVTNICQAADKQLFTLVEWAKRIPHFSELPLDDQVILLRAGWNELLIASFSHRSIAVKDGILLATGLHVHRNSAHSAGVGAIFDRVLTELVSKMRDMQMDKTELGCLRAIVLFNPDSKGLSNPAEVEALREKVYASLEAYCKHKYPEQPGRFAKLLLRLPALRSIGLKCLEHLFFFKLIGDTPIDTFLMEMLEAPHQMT
Description: DNA-dependent binding (ABCD binding) using SPA technology, huPPARγ. The note with it: SPA displacement of tritium-labeled PPARγ agonist radioligand. The procedure: (§1) DNA-dependent binding (ABCD binding) was carried out using SPA technology with PPAR receptors. Tritium-labeled PPARα and PPARγ agonists were used as radioligands for generating displacement curves and IC50 values with compounds of the invention. Cotransfection assays were carried out in CV-1 cells. The reporter plasmid contained an acylCoA oxidase (AOX) PPRE and TK promoter upstream of the luciferase reporter cDNA. Appropriate PPARs and RXRα were constitutively expressed using plasmids containing the CMV promoter. […] In order to eliminate such interference, a GAL4 chimeric system was used in which the DNA binding domain of the transfected PPAR was replaced by that of GAL4, and the GAL4 response element was utilized in place of the AOX PPRE. Cotransfection efficacy was determined relative to PPARα agonist and PPARγ agonist reference molecules. Efficacies were determined by computer fit to a concentration-response curve, or in some cases at a single high concentration of agonist (10 μM). For binding or cotransfection studies with receptors other than PPARs, similar assays were carried out using appropriate ligands, receptors, reporter constructs, etc., for that particular receptor.
(§2) These studies were carried out to evaluate the ability of compounds of the invention to bind to and/or activate various nuclear transcription factors, particularly huPPARα (“hu” indicates “human”) and huPPARγ. These studies provide in vitro data concerning efficacy and selectivity of compounds of the invention. Furthermore, binding and cotransfection data for compounds of the invention were compared with corresponding data for marketed compounds that act on either huPPARα or huPPARγ.

A further test deals with T2, huPPARα (Homo sapiens, UniProt Q07869).
T2 sequence (Q07869 1-468): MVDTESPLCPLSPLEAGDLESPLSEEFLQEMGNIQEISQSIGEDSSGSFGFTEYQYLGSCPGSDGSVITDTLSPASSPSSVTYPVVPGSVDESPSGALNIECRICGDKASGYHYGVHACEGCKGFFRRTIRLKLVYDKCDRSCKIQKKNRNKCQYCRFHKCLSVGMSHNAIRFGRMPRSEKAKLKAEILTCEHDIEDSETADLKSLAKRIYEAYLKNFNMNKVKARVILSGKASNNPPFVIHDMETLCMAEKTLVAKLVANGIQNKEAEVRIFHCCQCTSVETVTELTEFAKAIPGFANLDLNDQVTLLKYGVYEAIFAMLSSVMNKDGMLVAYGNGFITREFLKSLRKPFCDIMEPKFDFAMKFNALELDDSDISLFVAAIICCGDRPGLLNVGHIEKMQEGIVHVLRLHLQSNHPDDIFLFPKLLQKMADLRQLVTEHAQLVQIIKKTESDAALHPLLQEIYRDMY
T2 sequence (P19793 1-462 partner): T1 sequence (P19793 1-462 partner)
Nature of the test: DNA-dependent binding (ABCD binding) using SPA technology, huPPARα. The following applies: SPA displacement of tritium-labeled PPARα agonist radioligand. The procedure:
as §1, §2

Test [2] deals with T1, huPPARγ. Nature of the test: Cotransfection assay in CV-1 cells, huPPARγ. The test is classed as cell-based. Also on record: Appropriate PPARs and RXRα were constitutively expressed using plasmids containing the CMV promoter; expressed in transfected cells; host or cells: CV-1 cells. The following applies: AOX PPRE luciferase reporter, relative to PPARγ agonist reference molecule, read-out: huPPARγ CTF Efficacy. The procedure:
as §1, §2

Structures are written as SMILES.

`Cc1oc(-c2cccc(Br)c2)nc1CCOc1ccc(CC(C)(Oc2ccccc2)C(=O)O)cc1` (stereo not drawn) [Example 8, 3-(4-{2-[2-(3-Bromophenyl)-5-methyloxazol-4-yl]ethoxy}phenyl)-2-methyl-2-phenoxypropionic acid]: the concentration for half-maximal inhibition (IC50) at huPPARγ [1] was determined as 24 nM; at huPPARα, 63 nM. Also, the Emax at huPPARγ [2] turned out to be 75%.

Turning to `Cc1oc(C2(C)CCCCC2)nc1CCOc1ccc(CC(C)(Oc2ccccc2)C(=O)O)cc1` (stereo not drawn) [Example 9, 2-Methyl-3-(4-{2-[5-methyl-2-(1-methylcyclohexyl)oxazol-4-yl]ethoxy}phenyl)-2-phenoxypropionic acid], the figures for the half-inhibitory concentration (IC50) on huPPARγ [1] and on huPPARα were 11 nM and 41 nM, respectively. At huPPARγ [2], the Emax stood at 73%.

For the compound `Cc1oc(-c2cccs2)nc1CCOc1ccc(CC(C)(Oc2ccc(C(C)(C)C)cc2)C(=O)O)cc1` (stereo not drawn) [Example 17, 2-Methyl-3-{4-[2-(5-methyl-2-thiophen-2-yl-oxazol-4-yl)-ethoxy]-phenyl}-2-(4-tert-butylphenoxy)-propionic acid], the IC50 on huPPARγ [1] was found to be 67 nM; on huPPARα, 68 nM. The Emax on huPPARγ [2] came to 105%.

Turning to `Cc1oc(C2CCCCC2)nc1CCOc1ccc(CC(C)(Oc2ccc(C(C)(C)C)cc2)C(=O)O)cc1` (stereo not drawn) [Example 18, 2-Methyl-3-(4-{2-[5-methyl-2-cyclohexylyl-oxazol-4-yl]-ethoxy}-phenyl)-2-(4-tert-butylphenoxy)-propionic acid], the results for the IC50 at huPPARγ [1] and at huPPARα were 60 nM and 72 nM, respectively. Moreover, the Emax at huPPARγ [2] turned out to be 112%.

Take `COc1ccc(OC(C)(Cc2ccc(OCCc3nc(-c4cccs4)oc3C)cc2)C(=O)O)cc1` (stereo not drawn) [Example 19, 2-Methyl-3-{4-[2-(5-methyl-2-thiophen-2-yl-oxazol-4-yl)-ethoxy]-phenyl}-2-(4-methoxyphenoxy)-propionic acid]: the results for the IC50 on huPPARγ [1] and at huPPARα were 80 nM and 85 nM, respectively. Further, at huPPARγ [2], the Emax worked out at 23%.

As to `Cc1oc(-c2cccs2)nc1CCOc1ccc(CC(C)(Oc2cccc(F)c2)C(=O)O)cc1` (stereo not drawn) [Example 22, 2-(3-Fluoro-phenoxy)-2-methyl-3-{4-[2-(5-methyl-2-thiophen-2-yl-oxazol-4-yl)-ethoxy]-phenyl}-propionic acid], the figures for the IC50 at huPPARγ [1] and at huPPARα were 85 nM and 70 nM, respectively. Besides, the Emax on huPPARγ [2] came to 12%.

For `Cc1oc(C2CCCCC2)nc1CCOc1ccc(CC(C)(Oc2cccc(F)c2)C(=O)O)cc1` (stereo not drawn) [Example 23, 2-(3-Fluoro-phenoxy)-2-methyl-3-{4-[2-(5-methyl-2-cyclohexyl-oxazol-4-yl)-ethoxy]-phenyl}-propionic acid], the 50% inhibitory concentration (IC50) at huPPARγ [1] was determined as 81 nM; at huPPARα it was 63 nM. Moreover, the Emax on huPPARγ [2] worked out at 17%.

Regarding `Cc1oc(-c2cccs2)nc1CCOc1ccc(CC(C)(Oc2cccc(C(C)(C)C)c2)C(=O)O)cc1` (stereo not drawn) [Example 25, 2-(3-tert-Butyl-phenoxy)-2-methyl-3-{4-[2-(5-methyl-2-thiophen-2-yl-oxazol-4-yl)-ethoxy]-phenyl}-propionic acid], the figures for the 50% inhibitory concentration (IC50) on huPPARγ [1] and on huPPARα were 70 nM and 73 nM, respectively. At huPPARγ [2], the Emax is 106%.

As to `Cc1oc(-c2cccs2)nc1CCOc1ccc(CC(C)(Oc2ccccc2F)C(=O)O)cc1` (stereo not drawn) [Example 27, 2-(2-Fluoro-phenoxy)-2-methyl-3-{4-[2-(5-methyl-2-thiophen-2-yl-oxazol-4-yl)-ethoxy]-phenyl}-propionic acid], the half-inhibitory concentration (IC50) is 76 nM at huPPARγ [1] and 75 nM at huPPARα. Also, at huPPARγ [2], the Emax worked out at 15%.

For the compound `Cc1oc(-c2ccccc2)nc1CCOc1ccc(CC(C)(Oc2ccc(Cl)cc2)C(=O)O)cc1` (stereo not drawn) [Example 29, 2-(4-Chloro-phenoxy)-2-methyl-3-{4-[2-(5-methyl-2-phenyl-oxazol-4-yl)-ethoxy]-phenyl}-propionic acid], the results for the 50% inhibitory concentration (IC50) at huPPARγ [1] and at huPPARα were 48 nM and 116 nM, respectively. For the same compound, at huPPARγ [2], the Emax was 82%.

With `Cc1oc(C2CCCCC2)nc1CCOc1ccc(CC(C)(Oc2ccc(C3CCCCC3)cc2)C(=O)O)cc1` (stereo not drawn) [Example 34, 3-{4-[2-(2-Cyclohexyl-5-methyl-oxazol-4-yl)-ethoxy]-phenyl}-2-(4-cyclohexyl-phenoxy)-2-methyl-propionic acid], the IC50 at huPPARγ [1] is 77 nM; at huPPARα it was 91 nM. For the same compound, the Emax on huPPARγ [2] turned out to be 76%.

On to `Cc1ccc(OC(C)(Cc2ccc(OCCc3nc(C4CCCCC4)oc3C)cc2)C(=O)O)cc1C` (stereo not drawn) [Example 35, 3-{4-[2-(2-Cyclohexyl-5-methyl-oxazol-4-yl)-ethoxy]-phenyl}-2-(3,4-dimethyl-phenoxy)-2-methyl-propionic acid], for which the IC50 was 79 nM on huPPARγ [1] and 66 nM on huPPARα. In addition, the Emax on huPPARγ [2] came to 21%.

`Cc1ccc(OC(C)(Cc2ccc(OCCc3nc(-c4cccs4)oc3C)cc2)C(=O)O)cc1C` (stereo not drawn) [Example 36, 2-(3,4-Dimethyl-phenoxy)-2-methyl-3-{4-[2-(5-methyl-2-thiophen-2-yl-oxazol-4-yl)-ethoxy]-phenyl}-propionic acid]: the concentration for half-maximal inhibition (IC50) at huPPARγ [1] was 88 nM; on huPPARα it was 72 nM. In addition, the Emax on huPPARγ [2] came out at 21%.

On to `Cc1ccc(OC(C)(Cc2ccc(OCCc3nc(-c4cccs4)oc3C)cc2)C(=O)O)cc1` (stereo not drawn) [Example 40, 2-Methyl-3-{4-[2-(5-methyl-2-thiophen-2-yl-oxazol-4-yl)-ethoxy]-phenyl}-2-p-tolyloxy-propionic acid], for which the values for the 50% inhibitory concentration (IC50) on huPPARγ [1] and on huPPARα were 10 nM and 50 nM, respectively. At huPPARγ [2], the Emax is 110%.

Turning to `Cc1ccc(OC(C)(Cc2ccc(OCCc3nc(C4CCCCC4)oc3C)cc2)C(=O)O)cc1` (stereo not drawn) [Example 41, 3-{4-[2-(2-Cyclohexyl-5-methyl-oxazol-4-yl)-ethoxy]-phenyl}-2-methyl-2-p-tolyloxy-propionic acid], the IC50 on huPPARγ [1] was 109 nM; on huPPARα, 66 nM. Besides, the Emax on huPPARγ [2] amounted to 11%.

Regarding `Cc1oc(C2CCCCC2)nc1CCOc1ccc(CC(C)(Oc2ccc(OC(F)(F)F)cc2)C(=O)O)cc1` (stereo not drawn) [Example 44, 3-{4-[2-(2-Cyclohexyl-5-methyl-oxazol-4-yl)-ethoxy]-phenyl}-2-methyl-2-(4-trifluoromethoxy-phenoxy)-propionic acid], the figures for the half-inhibitory concentration (IC50) at huPPARγ [1] and at huPPARα were 159 nM and 157 nM, respectively. For the same compound, at huPPARγ [2], the Emax amounted to 73%.

As to `Cc1oc(-c2cccs2)nc1CCOc1ccc(CC(C)(Oc2ccc(C(F)(F)F)cc2)C(=O)O)cc1` (stereo not drawn) [Example 51, 2-Methyl-3-{4-[2-(5-methyl-2-thiophen-2-yl-oxazol-4-yl)-ethoxy]-phenyl}-2-(4-trifluoromethyl-phenoxy)-propionic acid], the values for the IC50 on huPPARγ [1] and at huPPARα were 80 nM and 64 nM, respectively. Further, the Emax on huPPARγ [2] was 48%.

Values taken from US7345070B2, “Peroxisome proliferator activated receptor agonists” (Eli Lilly and Company, priority 2000, dated 2008).
